One compound from US20040034001A1, “Treatment of hypertension in women receiving hormone replacement therapy” (Schering AG, priority 2002, published 2004) can be followed below.

This assay deals with hypertensive postmenopausal women. Put plainly: Post hoc analysis of blood pressure in women with elevated BP at baseline, multicenter 1-year endometrium study, no ACE inhibitor. It is filed as in vivo, human. Conditions: after 11 weeks; subset with baseline systolic BP>=140 mm Hg and or diastolic BP>=90 mm Hg. The method, then: Administration of DRSP/E2 to Hypertensive Postmenopausal Women not being Treated with an ACE Inhibitor.
In a multicenter, double-blind randomized study examining the effect on the endometrium of 1142 postmenopausal women treated for 1 year with 1 of 4 doses of DRSP (0.5,1,2, and 3 mg) compared with E2 alone, mean systolic and diastolic blood pressure decreased from baseline for all treatment groups.

Turning to `C[C@]12CC[C@@H]3c4ccc(O)cc4CC[C@H]3[C@@H]1CC[C@@H]2O` [E2, 17-β-estradiol], the “mean decrease in systolic blood pressure” value is listed as −3.7 mm Hg.
